Measurements from ChEMBL document CHEMBL4507291 (2021).

How the values were obtained:
[1] = biological target: D(2) dopamine receptor (Homo sapiens) (UniProt P14416); settings: Compound concentration 10.0 uM
[2] = tested on: Tyrosine-protein kinase ABL1 (Homo sapiens), P00519 [G250E]; test: ABL1 G250E Kinase screen; settings: Compound concentration 1.0 uM
[3] = biological target: Calcium/calmodulin-dependent protein kinase kinase 2 (Homo sapiens) (UniProt Q96RR4); test: CAMKK2 (CaMKK beta) Kinase screen; settings: Compound concentration 1.0 uM
[4] = biological target: T1, Serine/threonine-protein kinase NLK (Homo sapiens) (UniProt Q9UBE8); test: NLK Kinase screen; settings: Compound concentration 1.0 uM
T1 sequence (whole entry): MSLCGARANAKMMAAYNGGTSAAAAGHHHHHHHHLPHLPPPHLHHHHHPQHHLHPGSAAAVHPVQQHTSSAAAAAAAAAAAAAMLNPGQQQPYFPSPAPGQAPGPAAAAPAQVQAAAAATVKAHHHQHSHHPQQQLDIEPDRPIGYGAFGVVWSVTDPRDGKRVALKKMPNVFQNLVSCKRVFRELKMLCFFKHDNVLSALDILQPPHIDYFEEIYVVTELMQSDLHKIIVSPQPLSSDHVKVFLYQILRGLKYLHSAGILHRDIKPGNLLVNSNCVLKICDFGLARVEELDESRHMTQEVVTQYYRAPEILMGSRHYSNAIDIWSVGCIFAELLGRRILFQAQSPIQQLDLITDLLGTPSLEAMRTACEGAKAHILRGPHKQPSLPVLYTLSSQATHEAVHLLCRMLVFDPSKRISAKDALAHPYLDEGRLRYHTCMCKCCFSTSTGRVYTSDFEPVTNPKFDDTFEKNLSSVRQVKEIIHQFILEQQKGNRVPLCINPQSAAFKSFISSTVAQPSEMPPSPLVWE

[5] = biological target: Tyrosine-protein kinase Lck (Homo sapiens) (UniProt P06239); test: LCK Kinase screen; settings: Compound concentration 1.0 uM
[6] = biological target: Dual specificity protein kinase CLK4 (Homo sapiens) (UniProt Q9HAZ1); test: CLK4 Kinase screen; settings: Compound concentration 1.0 uM
[7] = biological target: Beta-1 adrenergic receptor (Homo sapiens) (UniProt P08588); settings: Compound concentration 10.0 uM
[8] = biological target: Mitogen-activated protein kinase kinase kinase kinase 4 (Homo sapiens) (UniProt O95819); test: MAP4K4 (HGK) Kinase screen; settings: Compound concentration 1.0 uM
[9] = biological target: Death-associated protein kinase 3 (Homo sapiens) (UniProt O43293); test: DAPK3 (ZIPK) Kinase screen; settings: Compound concentration 1.0 uM
[10] = biological target: MAP kinase-interacting serine/threonine-protein kinase 2 (Homo sapiens) (UniProt Q9HBH9); test: MKNK2 (MNK2) Kinase screen; settings: Compound concentration 1.0 uM
[11] = biological target: Prostacyclin receptor (Homo sapiens) (UniProt P43119); test: Prostanoid IP Eurofins-Panlabs radioligand binding assay; settings: Compound concentration 10.0 uM
[12] = biological target: Prostaglandin E2 receptor EP3 subtype (Homo sapiens) (UniProt P43115); test: Prostanoid EP3 Eurofins-Panlabs radioligand binding assay; design: ligand concentration 0.5 nM, non-specific ligand with concentration 10 µM Prostaglandin EŽ2 (PGE2), incubation time 60 min, incubation temperature 25 °C; settings: Compound concentration 10.0 uM
[13] = biological target: T2, Cytoplasmic tyrosine-protein kinase BMX (Homo sapiens) (UniProt P51813); test: BMX Kinase screen; settings: Compound concentration 1.0 uM
T2 sequence (whole entry): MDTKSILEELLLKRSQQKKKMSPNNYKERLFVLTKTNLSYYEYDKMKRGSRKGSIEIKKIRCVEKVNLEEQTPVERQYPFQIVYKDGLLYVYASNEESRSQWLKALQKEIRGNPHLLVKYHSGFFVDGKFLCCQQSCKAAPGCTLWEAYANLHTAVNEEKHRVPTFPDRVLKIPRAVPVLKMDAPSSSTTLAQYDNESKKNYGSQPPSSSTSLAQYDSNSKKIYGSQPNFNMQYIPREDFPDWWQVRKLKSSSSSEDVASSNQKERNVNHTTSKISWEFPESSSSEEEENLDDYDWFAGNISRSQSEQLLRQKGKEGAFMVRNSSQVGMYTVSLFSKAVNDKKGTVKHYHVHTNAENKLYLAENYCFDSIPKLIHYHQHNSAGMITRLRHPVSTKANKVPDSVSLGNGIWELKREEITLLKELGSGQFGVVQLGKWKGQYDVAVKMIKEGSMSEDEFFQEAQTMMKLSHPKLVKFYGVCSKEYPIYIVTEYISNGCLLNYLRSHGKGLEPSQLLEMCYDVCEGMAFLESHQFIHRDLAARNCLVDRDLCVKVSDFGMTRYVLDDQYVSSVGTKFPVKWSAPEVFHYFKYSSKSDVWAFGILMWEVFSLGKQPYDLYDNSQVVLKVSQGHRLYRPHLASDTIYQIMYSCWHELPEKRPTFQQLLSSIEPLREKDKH

[14] = biological target: T3, cGMP-dependent protein kinase 2 (Homo sapiens) (UniProt Q13237); test: PRKG2 (PKG2) Kinase screen; settings: Compound concentration 1.0 uM
T3 sequence (whole entry): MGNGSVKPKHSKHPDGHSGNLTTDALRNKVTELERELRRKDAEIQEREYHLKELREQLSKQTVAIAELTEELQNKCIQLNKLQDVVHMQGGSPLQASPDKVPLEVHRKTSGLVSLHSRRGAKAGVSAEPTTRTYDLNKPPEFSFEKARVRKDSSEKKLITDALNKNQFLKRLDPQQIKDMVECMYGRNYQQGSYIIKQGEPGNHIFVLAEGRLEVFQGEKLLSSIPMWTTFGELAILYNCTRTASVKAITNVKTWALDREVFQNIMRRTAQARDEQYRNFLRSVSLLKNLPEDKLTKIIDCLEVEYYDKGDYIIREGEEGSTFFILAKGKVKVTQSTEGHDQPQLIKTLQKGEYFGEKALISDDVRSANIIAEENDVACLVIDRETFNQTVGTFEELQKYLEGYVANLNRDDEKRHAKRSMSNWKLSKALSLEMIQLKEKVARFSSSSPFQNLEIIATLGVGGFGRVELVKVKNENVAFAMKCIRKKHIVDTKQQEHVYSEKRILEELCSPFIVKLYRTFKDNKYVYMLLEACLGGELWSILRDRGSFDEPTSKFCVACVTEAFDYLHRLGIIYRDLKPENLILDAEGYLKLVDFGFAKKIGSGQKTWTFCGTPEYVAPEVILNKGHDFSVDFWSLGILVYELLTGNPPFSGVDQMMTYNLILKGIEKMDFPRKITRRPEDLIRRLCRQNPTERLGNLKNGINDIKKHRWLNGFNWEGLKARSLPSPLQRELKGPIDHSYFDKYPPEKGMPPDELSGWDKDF

Measured: inhibition

Chain of Beta-1 adrenergic receptor (Homo sapiens) (P08588 whole entry, looked up): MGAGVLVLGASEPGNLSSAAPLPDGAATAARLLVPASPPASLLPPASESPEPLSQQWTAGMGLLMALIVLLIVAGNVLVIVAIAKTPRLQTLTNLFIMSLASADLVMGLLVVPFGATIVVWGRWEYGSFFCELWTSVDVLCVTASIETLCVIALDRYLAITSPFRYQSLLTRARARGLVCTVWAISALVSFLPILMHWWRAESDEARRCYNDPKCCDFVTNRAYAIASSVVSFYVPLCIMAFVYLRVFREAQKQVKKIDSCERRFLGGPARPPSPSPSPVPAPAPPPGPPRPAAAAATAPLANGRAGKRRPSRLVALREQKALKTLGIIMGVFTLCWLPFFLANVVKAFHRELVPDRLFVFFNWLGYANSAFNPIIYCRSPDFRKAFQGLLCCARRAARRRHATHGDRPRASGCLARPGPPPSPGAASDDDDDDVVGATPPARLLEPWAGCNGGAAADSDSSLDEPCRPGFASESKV
Chain of Prostacyclin receptor (Homo sapiens) (P43119 whole entry): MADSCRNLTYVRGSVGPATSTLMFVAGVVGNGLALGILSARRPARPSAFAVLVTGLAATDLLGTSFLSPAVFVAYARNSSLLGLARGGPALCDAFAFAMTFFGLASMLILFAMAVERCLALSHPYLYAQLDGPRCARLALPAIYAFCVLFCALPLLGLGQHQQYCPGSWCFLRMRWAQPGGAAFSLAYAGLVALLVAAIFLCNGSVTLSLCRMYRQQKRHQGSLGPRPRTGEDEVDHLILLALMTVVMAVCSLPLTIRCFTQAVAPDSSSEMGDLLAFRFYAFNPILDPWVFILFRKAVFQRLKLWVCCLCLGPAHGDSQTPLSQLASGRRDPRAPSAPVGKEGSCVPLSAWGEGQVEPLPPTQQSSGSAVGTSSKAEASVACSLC
Chain of Prostaglandin E2 receptor EP3 subtype (Homo sapiens) (P43115 whole entry): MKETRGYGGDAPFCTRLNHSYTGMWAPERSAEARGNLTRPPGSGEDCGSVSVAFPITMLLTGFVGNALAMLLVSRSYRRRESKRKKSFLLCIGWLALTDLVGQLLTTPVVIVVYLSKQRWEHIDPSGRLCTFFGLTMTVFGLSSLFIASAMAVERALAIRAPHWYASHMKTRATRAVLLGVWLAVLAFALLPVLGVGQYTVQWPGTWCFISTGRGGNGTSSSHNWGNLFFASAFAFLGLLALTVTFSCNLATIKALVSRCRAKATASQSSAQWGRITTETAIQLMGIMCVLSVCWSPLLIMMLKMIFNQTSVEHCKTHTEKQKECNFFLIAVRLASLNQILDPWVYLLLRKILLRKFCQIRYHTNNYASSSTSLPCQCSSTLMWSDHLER
Chain of Tyrosine-protein kinase Lck (Homo sapiens) (P06239 2-509 limits assumed): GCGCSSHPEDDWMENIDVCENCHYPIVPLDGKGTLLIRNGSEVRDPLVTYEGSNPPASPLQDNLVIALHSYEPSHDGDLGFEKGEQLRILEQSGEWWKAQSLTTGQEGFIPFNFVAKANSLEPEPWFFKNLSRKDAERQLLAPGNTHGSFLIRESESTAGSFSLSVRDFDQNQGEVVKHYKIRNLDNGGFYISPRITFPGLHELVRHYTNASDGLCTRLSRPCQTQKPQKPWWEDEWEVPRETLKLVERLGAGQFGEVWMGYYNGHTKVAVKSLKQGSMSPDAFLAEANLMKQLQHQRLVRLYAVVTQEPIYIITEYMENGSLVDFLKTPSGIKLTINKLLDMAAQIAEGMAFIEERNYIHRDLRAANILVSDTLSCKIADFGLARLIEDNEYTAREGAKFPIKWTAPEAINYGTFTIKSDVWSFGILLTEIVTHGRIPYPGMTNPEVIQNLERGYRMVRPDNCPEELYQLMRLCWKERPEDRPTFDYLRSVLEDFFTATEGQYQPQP
Chain of Mitogen-activated protein kinase kinase kinase kinase 4 (Homo sapiens) (O95819 2-1239 limits assumed): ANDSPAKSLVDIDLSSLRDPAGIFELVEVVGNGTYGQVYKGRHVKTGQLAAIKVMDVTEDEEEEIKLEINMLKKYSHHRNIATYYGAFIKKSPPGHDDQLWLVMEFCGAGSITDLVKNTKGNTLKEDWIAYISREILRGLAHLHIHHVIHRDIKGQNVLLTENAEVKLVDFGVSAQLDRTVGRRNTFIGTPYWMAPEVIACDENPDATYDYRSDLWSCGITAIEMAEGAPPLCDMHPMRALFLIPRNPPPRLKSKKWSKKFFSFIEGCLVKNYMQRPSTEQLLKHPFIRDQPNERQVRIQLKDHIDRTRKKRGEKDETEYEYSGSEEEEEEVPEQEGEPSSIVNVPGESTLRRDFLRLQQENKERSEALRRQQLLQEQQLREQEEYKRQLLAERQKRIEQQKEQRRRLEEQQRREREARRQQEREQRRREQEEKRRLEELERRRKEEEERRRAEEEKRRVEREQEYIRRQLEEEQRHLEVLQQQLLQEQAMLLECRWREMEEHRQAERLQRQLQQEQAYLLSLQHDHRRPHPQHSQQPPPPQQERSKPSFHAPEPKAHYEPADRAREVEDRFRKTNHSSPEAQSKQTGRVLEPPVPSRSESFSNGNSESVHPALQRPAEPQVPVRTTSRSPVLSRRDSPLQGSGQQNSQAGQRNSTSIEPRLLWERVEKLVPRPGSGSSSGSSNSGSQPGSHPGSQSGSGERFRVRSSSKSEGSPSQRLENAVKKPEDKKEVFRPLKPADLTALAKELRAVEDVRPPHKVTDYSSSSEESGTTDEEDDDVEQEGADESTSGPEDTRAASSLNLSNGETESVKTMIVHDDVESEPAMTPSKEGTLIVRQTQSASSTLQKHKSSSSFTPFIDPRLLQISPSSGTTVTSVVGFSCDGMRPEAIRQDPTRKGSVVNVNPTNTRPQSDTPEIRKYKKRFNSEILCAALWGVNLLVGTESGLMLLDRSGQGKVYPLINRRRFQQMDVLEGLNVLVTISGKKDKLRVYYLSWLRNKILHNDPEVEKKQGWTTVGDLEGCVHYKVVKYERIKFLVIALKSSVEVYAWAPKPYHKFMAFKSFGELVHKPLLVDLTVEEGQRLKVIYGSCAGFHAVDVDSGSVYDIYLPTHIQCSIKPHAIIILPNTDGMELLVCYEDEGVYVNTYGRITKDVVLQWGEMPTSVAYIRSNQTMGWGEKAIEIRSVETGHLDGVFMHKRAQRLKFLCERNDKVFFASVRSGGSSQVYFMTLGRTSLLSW
Chain of D(2) dopamine receptor (Homo sapiens) (P14416 whole entry): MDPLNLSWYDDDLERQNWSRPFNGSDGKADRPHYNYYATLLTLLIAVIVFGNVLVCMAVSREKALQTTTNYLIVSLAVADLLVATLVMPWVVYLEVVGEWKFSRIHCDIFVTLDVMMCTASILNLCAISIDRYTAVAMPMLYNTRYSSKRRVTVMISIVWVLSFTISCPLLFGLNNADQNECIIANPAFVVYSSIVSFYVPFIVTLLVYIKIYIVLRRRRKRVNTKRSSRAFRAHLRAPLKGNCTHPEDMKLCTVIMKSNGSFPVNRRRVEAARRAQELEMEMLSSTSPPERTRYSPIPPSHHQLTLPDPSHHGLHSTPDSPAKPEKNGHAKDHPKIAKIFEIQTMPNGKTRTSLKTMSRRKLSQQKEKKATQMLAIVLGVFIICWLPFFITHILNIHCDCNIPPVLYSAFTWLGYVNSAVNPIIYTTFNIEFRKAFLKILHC
Chain of Calcium/calmodulin-dependent protein kinase kinase 2 (Homo sapiens) (Q96RR4 2-588 limits assumed): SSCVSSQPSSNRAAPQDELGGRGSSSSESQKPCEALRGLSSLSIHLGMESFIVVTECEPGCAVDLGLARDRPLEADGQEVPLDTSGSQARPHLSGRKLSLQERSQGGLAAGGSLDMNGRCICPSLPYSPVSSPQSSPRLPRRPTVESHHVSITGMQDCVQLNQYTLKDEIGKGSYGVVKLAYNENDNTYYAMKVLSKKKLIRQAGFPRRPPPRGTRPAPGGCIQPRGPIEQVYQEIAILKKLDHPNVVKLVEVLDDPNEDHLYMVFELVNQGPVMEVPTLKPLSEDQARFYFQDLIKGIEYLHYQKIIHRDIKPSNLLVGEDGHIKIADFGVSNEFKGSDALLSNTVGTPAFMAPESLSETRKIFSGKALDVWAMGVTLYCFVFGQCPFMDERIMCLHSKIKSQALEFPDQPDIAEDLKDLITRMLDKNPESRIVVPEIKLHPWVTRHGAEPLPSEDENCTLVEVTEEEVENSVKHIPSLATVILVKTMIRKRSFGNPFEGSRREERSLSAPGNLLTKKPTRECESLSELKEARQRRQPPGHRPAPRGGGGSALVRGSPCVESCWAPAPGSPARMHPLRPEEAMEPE
Chain of Dual specificity protein kinase CLK4 (Homo sapiens) (Q9HAZ1 whole entry, looked up): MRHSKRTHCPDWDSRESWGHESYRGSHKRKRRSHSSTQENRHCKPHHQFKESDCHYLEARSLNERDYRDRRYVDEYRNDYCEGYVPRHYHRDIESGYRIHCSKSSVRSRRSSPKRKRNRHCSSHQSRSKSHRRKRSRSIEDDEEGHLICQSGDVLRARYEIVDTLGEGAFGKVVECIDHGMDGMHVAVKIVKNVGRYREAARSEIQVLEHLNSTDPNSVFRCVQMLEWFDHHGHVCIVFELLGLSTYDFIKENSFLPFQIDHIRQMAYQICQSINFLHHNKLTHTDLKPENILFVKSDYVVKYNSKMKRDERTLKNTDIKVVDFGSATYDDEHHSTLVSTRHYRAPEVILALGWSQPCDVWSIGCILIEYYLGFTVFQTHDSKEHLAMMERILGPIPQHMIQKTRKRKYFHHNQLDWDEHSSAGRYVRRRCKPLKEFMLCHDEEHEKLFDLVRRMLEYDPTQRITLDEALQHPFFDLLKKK
Chain of Death-associated protein kinase 3 (Homo sapiens) (O43293 whole entry, looked up): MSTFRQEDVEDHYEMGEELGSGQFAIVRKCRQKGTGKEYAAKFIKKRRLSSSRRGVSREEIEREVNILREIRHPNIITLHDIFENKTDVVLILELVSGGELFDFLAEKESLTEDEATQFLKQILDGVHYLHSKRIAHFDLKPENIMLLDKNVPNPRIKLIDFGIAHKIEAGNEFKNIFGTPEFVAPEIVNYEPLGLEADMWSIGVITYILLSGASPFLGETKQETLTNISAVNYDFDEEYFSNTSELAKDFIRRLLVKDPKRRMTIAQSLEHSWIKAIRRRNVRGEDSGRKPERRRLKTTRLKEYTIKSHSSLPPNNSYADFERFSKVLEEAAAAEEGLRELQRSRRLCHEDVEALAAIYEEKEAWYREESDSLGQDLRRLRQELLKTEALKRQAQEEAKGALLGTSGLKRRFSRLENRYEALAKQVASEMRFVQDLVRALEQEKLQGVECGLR

C[C@@H]1CN(c2cc(-c3nn(C)c4ccc(OC5(C)CC5)cc34)ncn2)C[C@H](C)O1 [MLi-2-NC]
inactive: [1] -0.18%

C[C@@H]1CN(c2cc(-c3n[nH]c4ccc(OC5(C)CC5)cc34)ncn2)C[C@H](C)O1 [MLi-2]
inactive: [2] 4.45% | [3] 19.8% | [4] 4.49% | [5] 10.4% | [6] 80.1% | [7] -7% | [8] 17.1% | [9] 5.27% | [10] 9.35% | [11] -9% | [12] -4% | [13] 14% | [14] 1.23%
